Results from patent US7144893B2, “4-aryl quinols and analogs thereof as therapeutic agents” (Cancer Research Technology Limited, priority 2001, dated 2006).
In brackets after ≈: the same amount, converted by molar mass.

How the values were obtained:
[1] = tested on: 60 human cancer cell lines; test: cells; assay type: cell-based
Protocol: (§1) Compounds were tested for in vitro activity (48 h drug exposure) across 60 human cancer cell lines through the National Cancer Institute (NCI) Developmental Therapies Screening Program (Boyd et al., 1995).

colon sub-panel = test: cells; assay type: cell-based; settings: Homo sapiens, SW-620, read-out: mean LC50 in colon sub-panel
Protocol: as §1

renal sub-panel = test: cells; assay type: cell-based; settings: Homo sapiens, 60 cell, read-out: mean LC50 in renal sub-panel
Protocol: as §1

A549 lung adenocarcinoma = test: Growth inhibitory assay (MTT, 72 hr); assay type: cell-based; settings: Homo sapiens, 72 hr exposure
Protocol: (§2) Compounds were prepared as 10 mM top stocks, dissolved in DMSO, and stored at 4° C., protected from light, for a maximum period of 4 weeks. Human derived cell lines (HCT 116, HT29 colon carcinoma; MCF-7 (ER+), MDA 468 (ER−) breast carcinoma; A549 lung adenocarcinoma) were routinely cultivated at 37° C. in an atmosphere of 5% CO2 in RPMI 1640 medium supplemented with 2 mM L-glutamine and 10% fetal calf serum and subcultured twice weekly to maintain continuous logarithmic growth. Cells were seeded into 96-well microtiter plates at a density of 5×10^3 per well and allowed 24 hr to adhere before drugs were introduced (final concentration 0.1 nM–100 μM, n=8). Serial drug dilutions were prepared in medium immediately prior to each assay. At the time of drug addition and following 72 hr exposure, MTT was added to each well (final concentration 400 µg/mL). Incubation at 37° C. for 4 hr allowed reduction of MTT by mitochondrial dehydrogenase to an insoluble formazan product. Well contents were aspirated and formazan solubilized by addition of DMSO:glycine buffer (pH 10.5) (4:1). Absorbance was measured using an Anthos Labtec systems plate reader at 550 nm, and used as a measure of cell viability; thus cell growth or drug toxicity was determined.

HCT 116 colon carcinoma = test: Growth inhibitory assay (MTT, 72 hr); assay type: cell-based; settings: Homo sapiens, 72 hr exposure
Protocol: as §2

HT29 colon carcinoma = test: Growth inhibitory assay (MTT, 72 hr); assay type: cell-based; settings: Homo sapiens, HT-29, 72 hr exposure
Protocol: as §2

[2] = tested on: MCF-7 (ER+) breast carcinoma; test: Growth inhibitory assay (MTT, 72 hr); assay type: cell-based; settings: Homo sapiens, MCF7, 72 hr exposure
Protocol: as §2

[3] = tested on: MDA 468 (ER−) breast carcinoma; test: Growth inhibitory assay (MTT, 72 hr); assay type: cell-based; settings: Homo sapiens, 72 hr exposure
Protocol: as §2

RXF 393NL = test: In vitro propidium iodide cytotoxicity assay; assay type: cell-based, human; settings: mean ± S.D.
Protocol: (§3) This assay was performed essentially according to the method described by Dengler et al., 1995. Human tumor cells (see Table 2) were plated in 96 well flat-bottomed microtiter plates (50 μL cell suspension, 1×10^5 or 5×10^4 cells/mL) and additional 50 μL of culture medium were added. After a 24 hr recovery, 50 μL of culture medium containing 50 μg/mL gentamycin was added into the 6 control wells or medium containing the test drug ([…]) was added to the wells. Each drug concentration was plated in triplicate. Following 3-6 days of incubation, depending on cell doubling time, a modified propidium iodide (PI) assay was performed. Culture medium was replaced by fresh medium and 50 μL of an aqueous propidium iodide solution (25 μg/mL) were added to each well. […] The fluorescence signal correlates with the numbers of dead cells. Fluorescence (FU1) was measured using a Millipore Cytofluor 2350 microplate reader (excitation 530 nm, emission 620 nm). Microplates were then kept at -18° C. for 24 hr, yielding a total cell kill. After thawing of the plates and a second fluorescence measurement (FU2), the amount of viable cells was calculated by subtraction of […]). Growth inhibition was expressed as treated/control ×100 (% T/C) (that is, growth inhibition at a given concentration is represented as a percentage of treated cell growth over control cell growth). Inhibiting concentrations (IC) were determined by plotting compound concentration versus cell viability. Mean IC50, IC70, and IC90 values were calculated for each individual cell line.

RXF 631L = test: In vitro propidium iodide cytotoxicity assay; assay type: cell-based, human; settings: mean ± S.D.
Protocol: as §3

RXF 944L = test: In vitro propidium iodide cytotoxicity assay; assay type: cell-based, human; settings: mean ± S.D.
Protocol: as §3

[4] = tested on: Mycobacterium tuberculosis H37Rv (ATCC 27294); test: Microplate Alamar Blue Assay (MABA), TAACF primary screening; assay type: cell-based; settings: lowest concentration effecting a reduction in fluorescence of 90% relative to controls
Text: Compounds were submitted to the Tuberculosis Antimicrobial Acquisition and Coordinating Facility (TAACF) for testing as antimycobacterial drugs.
Compounds were subjected to in vitro evaluation for antimycobacterial activity.
See, for example, Collins et al., 1997.

[5] = tested on: MCF-7 wt and MCF-7/adr (breast cancer); test: Potency in MCF-7 wt and MCF-7/adr; assay type: cell-based
[6] = tested on: MCF-7 (wt p53) and MDS 468 (mut p53) (breast cancer); test: Potency in MCF-7 (wt p53) and MDS 468 (mut p53); assay type: cell-based
[7] = tested on: ZR^75 clones expressing different levels of epidermal growth factor receptor (EGFR); test: Activity against ZR75 clones with different EGFR levels; assay type: cell-based
apoptotic events = test: Induction of apoptotic events; assay type: cell-based; settings: after lag phase (48 h)
cellular glutathione = test: Cellular glutathione; assay type: cell-based
p53 = p53 regulation in cancer cells; assay type: cell-based; settings: MCF-7 (breast cancer) and HCT 116 (colon cancer)
[8] = tested on: human renal tumor xenograft RXF 393; test: In vivo antitumor activity, renal tumor xenograft; settings: for DT (tumor doubling time) / T/C (optimal test/control): days 1, 5; for GD (growth delay): days 1, 5, difference in days to double initial tumor volume; for BWC (maximal body weight change): days 1, 5, model induces cachexia
[9] = tested on: human renal tumor xenograft RXF 1220; test: In vivo antitumor activity, renal tumor xenograft; settings: 15 mg/kg i.p.

Compound: O=C1C=CC(O)(c2nc3ccccc3s2)C=C1 [Q05, 4-(Benzothiazol-2-yl)-4-hydroxy-2,5-cyclohexadien-1-one]
- CC50 ([1]; Homo sapiens, 60 cell, 48 h, read-out: mean LC50): 3390 nM
- GI50 ([1]; Homo sapiens, 60 cell, Table 5): 290 nM
- GI50 ([1]; Homo sapiens, mean over NCI 60 cell panel, 48 h drug exposure): 230 nM
- mean log10GI50 ([1]; NCI analysis): −6.63
- log10LC50 ([1]; NCI analysis, certain colon and renal cells lines): < −6.0
- LC50 (colon sub-panel): 1760 nM
- mean LC50 (renal sub-panel): 1570 nM
- IC50 (A549 lung adenocarcinoma): 2350 nM
- IC50 (HCT 116 colon carcinoma): 40 nM
- IC50 (HT29 colon carcinoma): 380 nM
- IC50 [2]: 350 nM
- IC50 [3]: 790 nM
- IC50 (RXF 393NL; Homo sapiens): 0.34 ± 0.03 µg/mL (≈ 1.4 µM)
- IC90 (RXF 393NL; Homo sapiens): 8.63 ± 5.4 µg/mL (≈ 35.5 µM)
- Mean IC70 (RXF 393NL): 0.67 ± 0.09 µg/mL
- IC50 (RXF 631L; Homo sapiens): 0.37 µg/mL (≈ 1.52 µM)
- IC90 (RXF 631L; Homo sapiens): 0.84 µg/mL (≈ 3.45 µM)
- Mean IC70 (RXF 631L): 0.56 N.E. μg/mL
- IC50 (RXF 944L; Homo sapiens): 0.265 ± 0.06 µg/mL (≈ 1.09 µM)
- IC90 (RXF 944L; Homo sapiens): 0.87 ± 0.09 µg/mL (≈ 3.58 µM)
- Mean IC70 (RXF 944L): 0.48 ± 0.08 µg/mL
- MIC [4]: 0.78 µg/mL (≈ 3.21 µM)
- relative potency MCF-7 wt and MCF-7/adr [5]: equi-potent
- relative potency MCF-7 (wt p53) and MDS 468 (mut p53) [6]: equi-potent
- relative activity against ZR75 clones [7]: equi-active
- apoptosis induction (apoptotic events): induces apoptotic events
- effect on cellular glutathione (cellular glutathione): depletes cellular glutathione
- effect on p53 (p53): up-regulates p53
- DT (tumor doubling time) ([8]; 10 mg/kg i.p.): 3.0
- T/C (optimal test/control) ([8]; 10 mg/kg i.p.): 63
- GD (growth delay) ([8]; 10 mg/kg i.p.): 0.9
- BWC (maximal body weight change) ([8]; 10 mg/kg i.p.): −16
- DT (tumor doubling time) ([8]; 15 mg/kg i.p.): 2.6
- T/C (optimal test/control) ([8]; 15 mg/kg i.p.): 56
- GD (growth delay) ([8]; 15 mg/kg i.p.): 0.5
- BWC (maximal body weight change) ([8]; 15 mg/kg i.p.): −19
- DT (tumor doubling time) ([9]; days 1, 5, 8): 5.3
- T/C (optimal test/control) ([9]; days 1, 5, 8): 66
- GD (growth delay) ([9]; days 1, 5, 8, difference in days to double initial tumor volume): 2.2
- BWC (maximal body weight change) ([9]; days 1, 5, 8, model induces cachexia): −20
